Results published in BigSolDB 2.1.

N#Cc1ccncc1
solubility (mole fraction)
Details | 278.15 K | 283.15 K | 288.15 K | 293.15 K | 298.15 K | 303.15 K | 308.15 K | 313.15 K | 318.15 K
in acetone | 0.162 | 0.186 | 0.217 | 0.246 | 0.281 | 0.318 | 0.351 | 0.398 | 0.444
in ethanol | 0.0165 | 0.0242 | 0.035 | 0.0506 | 0.073 | 0.101 | 0.142 | 0.19 | 0.261
in methanol | 0.0384 | 0.0504 | 0.0656 | 0.0854 | 0.108 | 0.139 | 0.179 | 0.225 | 0.283
in n-propanol | 0.042 | 0.0556 | 0.0718 | 0.0926 | 0.118 | 0.147 | 0.184 | 0.237 | 0.303
in water | 0.00264 | 0.00327 | 0.004 | 0.00494 | 0.00603 | 0.00727 | 0.00875 | 0.0104 | 0.0123
